Laboratory results taken from patent publication US20070231288A1, “COSMETIC USE OF D-RIBOSE AND METHOD THEREOF” (LM Cosmetics, priority 2006, published 2007).

Experiments:
[1] = system: normal human dermal fibroblasts in culture (NHDF); assay: Effect of D-ribose on in vitro skin cell respiration (BD Oxygen Biosensor System); assay type: cell-based; details: 0.05% D-ribose, after 2 hours of contact
Protocol: The inventors measured the effect of D-ribose on the mitochondrial and cytosolic respiration of normal human dermal fibroblasts in culture (NHDF). The cells used are fibroblasts cultured at 37° C., 5% CO2, in DMEM medium, 10% FCS (foetal calf serum). The NHDF cultured in monolayer are placed in suspension and distributed in the wells of a special plate of the “BD Oxygen Biosensor System” kit. The bottom of the well is constituted by a membrane on which a molecule is grafted the fluorescence of which is inhibited by the oxygen dissolved in the incubation medium. The fluorescence increases in proportion to the oxygen consumed by the cells. 0.05% D-ribose is added in six wells. The intensity of fluorescence is measured in kinetic mode. The rate of respiration is calculated from measurements of the intensity of fluorescence.

[2] = system: normal human epidermal fibroblasts in culture; assay: Effect of D-ribose on in vitro production of ATP by skin cells under hypoxia; assay type: cell-based; details: 0.05% D-ribose, after 6 hours of severe hypoxia (oxygen <2%), 24 h pre-treatment
Protocol: The inventors measured the effect of D-ribose on the production of ATP by the normal human epidermal fibroblasts in culture, under conditions of hypoxia. The cellules used are flask inoculations of normal human epidermal fibroblasts in DMEM medium with 10% FCS, incubation at 37° C., 5% CO2 and RH>95% up to 80% confluency. On Day 1, a first measurement of the level of ATP is taken on the untreated, unstressed NHDF. Pre-treatment for 24 hours with 0.05% of ribose versus an untreated control condition, 2 series in hexaplicate according to conditions. On Day 2, before the induction of hypoxia: stopping a series in order to measure the ATP level before hypoxia over all conditions (treated and untreated). The cells of the 2nd series were placed in suspension, the culture medium was renewed by DMEM 10% FCS supplemented with Hepes buffer (to maintain the pH at physiological conditions during hypoxia) and with EDTA (to prevent cell agglutination). The cells are placed in a incubator adjusted to 37° C., RH>95% the atmosphere of which has previously been replaced with nitrogen. Incubation for 6 hours under conditions of severe hypoxia (oxygen <2%) in the presence of 0.05% D-ribose versus an untreated control condition. Recovery of the cells and measurement of the quantity of ATP in the treated and untreated cells.

With `O=C[C@H](O)[C@H](O)[C@H](O)CO` [D-ribose] the “increase in the cytosolic respiration” value [1] was 37%, the “increase in the mitochondrial respiration” value [1] was 31% and the ATP level re-established [2] was 19%.
